In ChEMBL document CHEMBL5154927, “Discovery of Novel Bicyclic Phenylselenyl-Containing Hybrids: An Orally Bioavailable, Potential, and Multiacting Class of Estrogen Receptor Modulators against Endocrine-Resistant Breast Cancer” (J Med Chem, 2022):
Calls of active or inactive are those of the source. The rule behind the calls is not given here.

Experiments:
[1] = target: T1, Hexokinase-1 (Homo sapiens) (UniProt P19367); experiment: Binding affinity to hexokinase-1 in human MCF7 cell lysate assessed as HK-1 pull down by western blotting based Co-immunoprecipitation assay; format: subcellular; settings: filed as antagonist
T1 sequence (whole entry): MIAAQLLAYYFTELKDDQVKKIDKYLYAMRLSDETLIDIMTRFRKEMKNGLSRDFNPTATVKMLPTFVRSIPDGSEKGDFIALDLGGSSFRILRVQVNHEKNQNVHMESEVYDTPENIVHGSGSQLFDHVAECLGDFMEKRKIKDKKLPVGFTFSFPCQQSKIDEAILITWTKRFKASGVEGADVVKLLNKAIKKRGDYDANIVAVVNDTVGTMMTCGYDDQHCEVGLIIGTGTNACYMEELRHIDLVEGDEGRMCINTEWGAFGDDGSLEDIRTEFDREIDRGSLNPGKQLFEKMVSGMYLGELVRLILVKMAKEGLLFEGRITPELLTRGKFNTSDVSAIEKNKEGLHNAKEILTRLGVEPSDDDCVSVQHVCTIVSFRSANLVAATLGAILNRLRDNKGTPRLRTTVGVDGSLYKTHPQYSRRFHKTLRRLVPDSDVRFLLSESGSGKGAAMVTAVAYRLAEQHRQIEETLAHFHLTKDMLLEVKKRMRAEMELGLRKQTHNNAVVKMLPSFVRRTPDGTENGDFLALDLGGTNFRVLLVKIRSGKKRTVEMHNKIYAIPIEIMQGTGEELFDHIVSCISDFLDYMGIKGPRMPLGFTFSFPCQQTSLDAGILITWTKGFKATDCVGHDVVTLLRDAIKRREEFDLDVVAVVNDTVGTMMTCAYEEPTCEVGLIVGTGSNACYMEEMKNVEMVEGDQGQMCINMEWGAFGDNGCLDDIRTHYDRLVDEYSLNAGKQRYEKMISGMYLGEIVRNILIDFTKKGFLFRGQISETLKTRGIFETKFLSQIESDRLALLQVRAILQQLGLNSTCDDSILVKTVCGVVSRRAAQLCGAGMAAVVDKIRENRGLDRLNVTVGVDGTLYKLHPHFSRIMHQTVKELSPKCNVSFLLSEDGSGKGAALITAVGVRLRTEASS

[2] = target: Estrogen receptor beta (Homo sapiens) (UniProt Q92731); experiment: Relative binding affinity to human ERbeta measured after 2 hrs by competitive fluorometric binding assay relative to estradiol
Estrogen receptor beta (Homo sapiens), sequence (Q92731 whole entry): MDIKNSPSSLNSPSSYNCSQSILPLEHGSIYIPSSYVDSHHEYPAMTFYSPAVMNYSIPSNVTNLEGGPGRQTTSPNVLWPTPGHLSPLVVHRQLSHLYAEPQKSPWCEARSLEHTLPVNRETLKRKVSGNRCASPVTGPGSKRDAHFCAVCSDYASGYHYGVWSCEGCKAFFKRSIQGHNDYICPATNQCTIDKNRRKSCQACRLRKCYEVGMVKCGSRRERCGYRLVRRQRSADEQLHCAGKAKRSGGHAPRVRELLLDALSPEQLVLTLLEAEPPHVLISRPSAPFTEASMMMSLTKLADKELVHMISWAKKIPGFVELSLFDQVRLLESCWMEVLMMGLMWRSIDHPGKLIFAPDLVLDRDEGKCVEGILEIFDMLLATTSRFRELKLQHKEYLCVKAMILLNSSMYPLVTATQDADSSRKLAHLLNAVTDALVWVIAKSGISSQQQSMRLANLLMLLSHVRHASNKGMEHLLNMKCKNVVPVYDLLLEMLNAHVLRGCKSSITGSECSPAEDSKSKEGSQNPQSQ

Homo sapiens = species on record: Homo sapiens; experiment: Selectivity ratio of relative binding affinity for human ERalpha to relative binding affinity for human ERbeta
[3] = Antiproliferative activity against tamoxifen-resistant human LCC2 cells assessed as reduction in cell viability measured after 72 hrs by Cell Counting Kit-8 assay; format: functional, cell-based; settings: LCC2, 72 h
[4] = Antiproliferative activity against human MCF-10A cells assessed as reduction in cell viability measured after 72 hrs by Cell Counting Kit-8 assay; format: toxicity, cell-based
[5] = Selectivity index, ratio of IC50 for human MCF-10A cells to IC50 for human MCF-7 cells; format: toxicity; settings: MCF-10A cells and MCF-7 cells, read-out: Ratio IC50
MCF7 [6] = experiment: cells; settings: Homo sapiens, MCF7, 72 h
Description: Antiproliferative activity against human MCF7 cells assessed as reduction in cell viability measured after 72 hrs by Cell Counting Kit-8 assay

MDA-MB-231 = experiment: cells; settings: Homo sapiens, MDA-MB-231, 72 h
Description: Antiproliferative activity against human MDA-MB-231 cells assessed as reduction in cell viability measured after 72 hrs by Cell Counting Kit-8 assay

MCF7 [7] = experiment: Induction of apoptosis in human MCF7 cells at 20 uM incubated for 48 hrs by annexin V-FITC staining based flow cytometry; format: functional, cell-based
MCF7 [8] = experiment: Antitumor activity against human MCF7 cells xenografted in BALB/C mouse assessed as increase in tumor necrosis area at 20 mg/kg, po […]; format: functional, organism-based
MCF7 [9] = experiment: Antitumor activity against human MCF7 cells xenografted in BALB/C mouse assessed as decrease in cell proliferation at 20 mg/kg, po by Ki67 staining based immunohistochemical analysis; format: functional, organism-based

For `O=C(CCC[C@@H]1SC[C@@H]2NC(=O)N[C@@H]21)Nc1cccc2c(OS(=O)(=O)C3CC4OC3C(c3ccc(O)cc3)=C4c3ccc(O)cc3)cccc12` (some centres undefined), the Activity [1] was “Active”, the RBA [2] was 0.1% and the Ratio (Homo sapiens) was 3.4.

With `O=S(=O)(Oc1cccc(Cl)c1)C1CC2OC1C(c1ccc([Se]c3ccccc3)cc1)=C2c1ccc(O)cc1` (centres undefined) the IC50 [3] was > 31 µM, the IC50 at 72 h [4] was 17.6 µM and the selectivity ratio [5] was 97.8. For the same molecule, the IC50 (MCF7 [6]) was 0.18 µM and the IC50 (MDA-MB-231) was 41.9 µM.

For `O=S(=O)(Oc1ccc(Cl)cc1)C1CC2OC1C(c1ccc([Se]c3ccccc3)cc1)=C2c1ccc(O)cc1` (centres undefined), the IC50 [3] was 6.88 µM, the IC50 at 72 h [4] was 26.1 µM and the selectivity ratio [5] was 186. It also gave an IC50 (MCF7 [6]) of 0.14 µM and an IC50 (MDA-MB-231) of 11 µM.

`Cc1cccc(OS(=O)(=O)C2CC3OC2C(c2ccc([Se]c4ccccc4)cc2)=C3c2ccc(O)cc2)c1` (centres undefined) gave an IC50 [3] of 8.42 µM, an IC50 at 72 h [4] of 30.6 µM and a selectivity ratio [5] of 255. It also gave an IC50 (MCF7 [6]) of 0.12 µM and an IC50 (MDA-MB-231) of 12.6 µM.

Work on `Cc1ccc(OS(=O)(=O)C2CC3OC2C(c2ccc([Se]c4ccccc4)cc2)=C3c2ccc(O)cc2)cc1` (centres undefined) yielded an IC50 [3] of 6.82 µM, an IC50 at 72 h [4] of 18.5 µM and a selectivity ratio [5] of 45.1. For the same molecule, the IC50 (MCF7 [6]) was 0.41 µM and the IC50 (MDA-MB-231) was 8.49 µM.

With `O=S(=O)(Oc1cccc(Br)c1)C1CC2OC1C(c1ccc([Se]c3ccccc3)cc1)=C2c1ccc(O)cc1` (centres undefined) the IC50 [3] was > 31 µM, the IC50 at 72 h [4] was 17.3 µM and the selectivity ratio [5] was 12.7. It also gave an IC50 (MCF7 [6]) of 1.36 µM and an IC50 (MDA-MB-231) of 19.2 µM.

With `O=S(=O)(Oc1ccc(Br)cc1)C1CC2OC1C(c1ccc(O)cc1)=C2c1ccc([Se]c2ccccc2)cc1` (centres undefined) the IC50 [3] was > 31 µM, the IC50 at 72 h [4] was 43.2 µM and the selectivity ratio [5] was 75.6. The IC50 (MCF7 [6]) was 0.55 µM and the IC50 (MDA-MB-231) was 17.4 µM.

For `O=S(=O)(Oc1ccc([Se]c2ccccc2)cc1)C1CC2OC1C(c1ccc(O)cc1)=C2c1ccc(O)cc1` (centres undefined), the IC50 [3] was 20.5 µM, the IC50 at 72 h [4] was > 60 µM and the selectivity ratio [5] was > 75. It also gave an IC50 (MCF7 [6]) of 0.8 µM and an IC50 (MDA-MB-231) of 31.6 µM.

Work on `O=S(=O)(Oc1cccc(O)c1)C1CC2OC1C(c1ccc(O)cc1)=C2c1ccc([Se]c2ccccc2)cc1` (centres undefined) yielded an IC50 [3] of 2.88 µM, an IC50 at 72 h [4] of 7.41 µM and a selectivity ratio [5] of 106. It also gave an IC50 (MCF7 [6]) of 0.07 µM and an IC50 (MDA-MB-231) of 7.13 µM.

For `CC/C(=C(\c1ccc(O)cc1)c1ccc(OCCN(C)C)cc1)c1ccccc1` [AFIMOXIFENE], the IC50 [3] was 22.2 µM and the IC50 (MDA-MB-231) was 18.4 µM.

Work on `O=S(=O)(Oc1cccc(C(F)(F)F)c1)C1CC2OC1C(c1ccc([Se]c3ccccc3)cc1)=C2c1ccc(O)cc1` (centres undefined) yielded an IC50 [3] of 8.76 µM, an IC50 at 72 h [4] of 41 µM and a selectivity ratio [5] of 75.9. For the same molecule, the IC50 (MCF7 [6]) was 0.54 µM and the IC50 (MDA-MB-231) was 16.8 µM.

In the case of `O=S(=O)(Oc1ccc(O)cc1)C1CC2OC1C(c1ccc(O)cc1)=C2c1ccc([Se]c2ccccc2)cc1` (centres undefined), the IC50 [3] is reported as > 31 µM, the IC50 at 72 h [4] is reported as 16.7 µM and the selectivity ratio [5] is reported as 8.54. It also gave an IC50 (MCF7 [6]) of 1.96 µM and an IC50 (MDA-MB-231) of 12.2 µM.

`O=S(=O)(Oc1ccc(Cl)cc1)C1CC2OC1C(c1ccc(O)cc1)=C2c1ccc([Se]c2ccccc2)cc1` (centres undefined) gave an IC50 [3] of 6.64 µM, an IC50 at 72 h [4] of 32 µM and a selectivity ratio [5] of 86.4. It also gave an IC50 (MCF7 [6]) of 0.37 µM and an IC50 (MDA-MB-231) of 11 µM.

For `O=S(=O)(Oc1ccc(Br)cc1)C1CC2OC1C(c1ccc([Se]c3ccccc3)cc1)=C2c1ccc(O)cc1` (centres undefined), the IC50 [3] was 25 µM, the IC50 at 72 h [4] was 28.2 µM and the selectivity ratio [5] was 90.8. The IC50 (MCF7 [6]) was 0.31 µM and the IC50 (MDA-MB-231) was 18.3 µM.

For `O=S(=O)(Oc1ccccc1)C1CC2OC1C(c1ccc(O)cc1)=C2c1ccc(O)cc1` (centres undefined), the IC50 [3] was > 31 µM, the IC50 at 72 h [4] was > 60 µM and the selectivity ratio [5] was > 4.11. The Activity (MCF7 [7]) was “Active”, the IC50 (MCF7 [6]) was 14.6 µM and the IC50 (MDA-MB-231) was 32.3 µM.

In the case of `O=S(=O)(Oc1ccc(C(F)(F)F)cc1)C1CC2OC1C(c1ccc(O)cc1)=C2c1ccc([Se]c2ccccc2)cc1` (centres undefined), the IC50 [3] is reported as > 31 µM, the IC50 at 72 h [4] is reported as 14.1 µM and the selectivity ratio [5] is reported as 94.3. It also gave an IC50 (MCF7 [6]) of 0.15 µM and an IC50 (MDA-MB-231) of 22 µM.

For `O=S(=O)(Oc1cccc2ccccc12)C1CC2OC1C(c1ccc(O)cc1)=C2c1ccc([Se]c2ccccc2)cc1` (centres undefined), the IC50 at 72 h [4] was > 60 µM, the selectivity ratio [5] was > 53.1 and the IC50 (MCF7 [6]) was 1.13 µM. For the same molecule, the IC50 (MDA-MB-231) was 45.5 µM.

`COc1cccc(OS(=O)(=O)C2CC3OC2C(c2ccc(O)cc2)=C3c2ccc([Se]c3ccccc3)cc2)c1` (centres undefined) gave an IC50 [3] of 4.8 µM, an IC50 at 72 h [4] of 17.9 µM and a selectivity ratio [5] of 27.1. For the same molecule, the IC50 (MCF7 [6]) was 0.66 µM and the IC50 (MDA-MB-231) was 10.5 µM.

With `O=S(=O)(Oc1ccc(C(F)(F)F)cc1)C1CC2OC1C(c1ccc([Se]c3ccccc3)cc1)=C2c1ccc(O)cc1` (centres undefined) the IC50 at 72 h [4] was 18.5 µM, the selectivity ratio [5] was 41.2 and the IC50 (MCF7 [6]) was 0.45 µM. For the same molecule, the IC50 (MDA-MB-231) was 27.5 µM.

With `CC/C(=C(\c1ccccc1)c1ccc(OCCN(C)C)cc1)c1ccccc1` the Activity (MCF7 [8]) was “Active” and the Activity (MCF7 [9]) was “Active”.

In the case of `Cc1ccc(OS(=O)(=O)C2CC3OC2C(c2ccc(O)cc2)=C3c2ccc([Se]c3ccccc3)cc2)cc1` (centres undefined), the IC50 [3] is reported as 6.08 µM, the IC50 at 72 h [4] is reported as 18.3 µM and the selectivity ratio [5] is reported as 4.6. The IC50 (MCF7 [6]) was 3.98 µM and the IC50 (MDA-MB-231) was 8.05 µM.

For `COc1ccc(OS(=O)(=O)C2CC3OC2C(c2ccc(O)cc2)=C3c2ccc([Se]c3ccccc3)cc2)cc1` (centres undefined), the IC50 at 72 h [4] was > 60 µM, the selectivity ratio [5] was > 8.04 and the IC50 (MCF7 [6]) was 7.46 µM. The IC50 (MDA-MB-231) was > 60 µM.

Work on `COc1ccc(OS(=O)(=O)C2CC3OC2C(c2ccc([Se]c4ccccc4)cc2)=C3c2ccc(O)cc2)cc1` (centres undefined) yielded an IC50 [3] of 5.92 µM, an IC50 at 72 h [4] of 29.1 µM and a selectivity ratio [5] of 138. The IC50 (MCF7 [6]) was 0.21 µM and the IC50 (MDA-MB-231) was 9.71 µM.

For `O=S(=O)(Oc1cccc([Se]c2ccccc2)c1)C1CC2OC1C(c1ccc(O)cc1)=C2c1ccc(O)cc1` (centres undefined), the IC50 [3] was > 31 µM, the IC50 at 72 h [4] was 50.3 µM and the selectivity ratio [5] was 29.4. It also gave an IC50 (MCF7 [6]) of 1.71 µM and an IC50 (MDA-MB-231) of 25.6 µM.

With `O=S(=O)(Oc1ccccc1)C1CC2OC1C(c1ccc(O)cc1)=C2c1ccc([Se]c2ccccc2)cc1` (centres undefined) the IC50 at 72 h [4] was > 60 µM, the selectivity ratio [5] was > 375 and the IC50 (MCF7 [6]) was 0.16 µM. For the same molecule, the IC50 (MDA-MB-231) was > 60 µM.
